Assay results from patent US20220073521A1, “PYRIMIDINE AND FIVE-MEMBERED NITROGEN HETEROCYCLE DERIVATIVE, PREPARATION METHOD THEREFOR, AND MEDICAL USES THEREOF” (Tuojie Biotech (Shanghai) Co., Ltd., priority 2018, published 2022).
Like-named read-outs stand apart in the source and are kept apart here.

Key:
[1] = target: T1, SHP2 wild-type phosphatase (recombinantly expressed full-length SHP2, aa 1-593) (Homo sapiens, UniProt Q06124); experiment: In vitro activity on SHP2 wild-type phosphatase (DiFMUP fluorescence); details: wild-type full-length SHP2, activated polypeptide IRS1 0.5 nM, DiFMUP 30 μM;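 note: enzyme preincubated at room temperature, then DiFMUP reaction run at room temperature and halted with SDS, potency derived from a logistic curve fit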
T1 sequence (Q06124 1-593): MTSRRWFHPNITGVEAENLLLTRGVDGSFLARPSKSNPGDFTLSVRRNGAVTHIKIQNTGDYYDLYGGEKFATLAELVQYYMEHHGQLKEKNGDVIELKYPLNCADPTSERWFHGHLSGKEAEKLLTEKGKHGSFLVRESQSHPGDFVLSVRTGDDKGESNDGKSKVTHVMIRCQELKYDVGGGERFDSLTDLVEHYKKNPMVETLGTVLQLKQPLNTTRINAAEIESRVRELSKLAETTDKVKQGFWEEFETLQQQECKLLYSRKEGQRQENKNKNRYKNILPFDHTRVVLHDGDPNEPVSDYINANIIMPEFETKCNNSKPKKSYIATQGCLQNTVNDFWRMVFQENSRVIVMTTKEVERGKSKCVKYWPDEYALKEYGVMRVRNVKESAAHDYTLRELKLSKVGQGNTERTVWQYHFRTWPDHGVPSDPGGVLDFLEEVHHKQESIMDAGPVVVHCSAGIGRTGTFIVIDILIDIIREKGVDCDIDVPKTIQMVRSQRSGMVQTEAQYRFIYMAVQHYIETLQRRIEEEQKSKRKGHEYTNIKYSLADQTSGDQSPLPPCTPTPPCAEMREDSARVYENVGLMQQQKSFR
Description: 0.2 nM recombinantly expressed full-length SHP2 (aa 1-593), 0.5 nM activated polypeptide IRS1 with double phosphorylation sites (sequence: H2N-LN(pY)IDLDLY(dPEG8)LST(pY)ASINFQK-amide) and a series of concentrations of the test compound (final concentrations were 1 μM, 0.3 μM, 0.1 μM, 0.03 μM, 0.01 μM, 0.003 μM, 0.001 μM, 0.0003 μM, 0.0001 μM, 0.00003 μM) were added to the phosphatase reaction solution (60 mM HEPES, pH 7.5 0.005% Brij-35, 75 mM NaCl, 75 mM KCl, 1 mM EDTA, 5 mM DTT). The reaction solution was shaked (350 rpm) at room temperature for 30 minutes. The reaction substrate DiFMUP with a final concentration of 30 μM was added, and the reaction solution was reacted at room temperature for 30 minutes. The phosphatase reaction was stopped by adding 5 μL of stop solution (60 mM HEPES, pH 7.5, 0.2% SDS). Ex358 nm/Em455 fluorescence value was read on the fluorescence plate reader MD SpectraMax.
The IC50 value of the compound was calculated using the four-parameter logit method. In the following formula, x represents the logarithmic form of the compound concentration, and F(x) represents the effect value (the inhibition rate of cell proliferation under the given concentration condition): F(x)=((A−D)/(1+((x/C)^B)))+D. A, B, C and D are four parameters. Different concentrations correspond to different inhibition rates, based on which an inverse curve was plotted, and the IC50 of the inhibitor was calculated from the curve. The IC50 of the compound was calculated with Primer premier 6.0.

p-ERK in KYSE-520 cells = experiment: Determination of p-ERK in KYSE-520 cells (HTRF); assay type: cell-based
Description: KYSE-520 cells (Nanjing Cobioer Biosciences CO., Ltd.) in the logarithmic growth phase were inoculated (30,000 cells/well) in 1640 medium containing 10% of FBS, and adhered in a 96-well plate overnight (5% CO2, 37° C.). […] The cell culture was stopped with cell lysate. The level of phosphorylated ERK in KYSE-520 cells was determined by a method based on homogeneous time-resolved fluorescence HTRF (Cisbio, 64ERKPEG). The fluorescence values (Ex337 nm/Em625/665 nm) were read on the compatible HTRF reader (MD SpectraMax).

KYSE-520 cells = experiment: KYSE-520 cell proliferation experiment (CellTiter-Glo, 7 days); assay type: cell-based
Description: The treated cell plate was incubated at 37° C., 5% CO2 for 7 days. CellTiter-Glo (Promega, G7573) was used to determine the number of viable cells in each well of the treated plate. 100 μL of the detection reagent was added to each well, and the plate was incubated at room temperature for 10 minutes. Then, the […] in each well was measured with Envision plate reader (PerkinElmer). […] The IC50 value was further calculated as the compound concentration required for 50% proliferation inhibition in the best-fit curve with […].

Row | SMILES | IC50 [1] | IC50 (p-ERK in KYSE-520 cells; Homo sapiens, KYSE-520, 2 h) | IC50 (p-ERK in KYSE-520 cells; 2 hours) | IC50 (KYSE-520 cells; Homo sapiens) | IC50 (KYSE-520 cells)
1 | Cc1nc(N2CCC3(CC2)CO[C@@H](C)[C@H]3N)n2ccnc2c1-c1cccc(Cl)c1Cl (single isomer, unassigned) [The atropisomer with a RT of 2.716 minutes in Examples 3 and 4] | 61.7 nM | – | – | – | –
2 | Cc1nc(N2CCC3(CCC[C@H]3N)CC2)n2ccnc2c1-c1ccnc(Cl)c1Cl [Example 5, (R)-8-(8-(2,3-Dichloropyridin-4-yl)-7-methylimidazo[1,2-c]pyrimidin-5-yl)-8-azaspiro[4.5]decan-1-amine] | 2.9 nM | – | – | – | –
3 | COc1nccc(-c2c(C)nc(N3CCC4(CCC[C@H]4N)CC3)n3ccnc23)c1Cl [Example 6, (R)-8-(8-(3-Chloro-2-methoxypyridin-4-yl)-7-methylimidazo[1,2-c]pyrimidin-5-yl)-8-azaspiro[4.5]decan-1-amine] | 26.9 nM | – | – | – | –
4 | Cc1nc(N2CCC3(CC2)Cc2ccccc2[C@H]3N)n2ccnc2c1-c1cccc(Cl)c1Cl [Example 8, (S)-1′-(8-(2,3-Dichlorophenyl)-7-methylimidazo[1,2-c]pyrimidin-5-yl)-1,3-dihydrospiro[indene-2,4′-piperidin]-1-amine] | 5 nM | 370 nM | – | 151 nM | –
5 | Cc1nc(N2CCC3(CC2)CO[C@@H](C)[C@H]3N)n2ccnc2c1-c1c(F)cccc1Cl [Example 10, (3S,4S)-8-(8-(2-Chloro-6-fluorophenyl)-7-methylimidazo[1,2-c]pyrimidin-5-yl)-3-methyl-2-oxa-8-azaspiro[4.5]decan-4-amine] | 111 nM | – | – | – | –
6 | Cc1nc(N2CCC3(CC2)CO[C@@H](C)[C@H]3N)n2ccnc2c1-c1c(F)ccc(Cl)c1Cl [Example 11, (3S,4S)-8-(8-(2,3-Dichloro-6-fluorophenyl)-7-methylimidazo[1,2-c]pyrimidin-5-yl)-3-methyl-2-oxa-8-azaspiro[4.5]decan-4-amine] | 41.1 nM | – | – | – | –
7 | CC1(N)CCN(c2ncc(Sc3ccnc(F)c3Cl)c3nccn23)CC1 [Example 14, 1-(8-((3-Chloro-2-fluoropyridin-4-yl)thio)imidazo[1,2-c]pyrimidin-5-yl)-4-methylpiperidin-4-amine] | 232 nM | – | – | – | –
8 | N[C@@H]1CCCC12CCN(c1ncc(Sc3cccnc3C(F)(F)F)c3nccn13)CC2 [Example 16, (R)-8-(8-((2-(Trifluoromethyl)pyridin-3-yl)thio)imidazo[1,2-c]pyrimidin-5-yl)-8-azaspiro[4.5]decan-1-amine] | 6.8 nM | 166 nM | – | 548 nM | –
9 | CC1(N)CCN(c2ncc(Sc3ccnc(F)c3Cl)c3nncn23)CC1 [Example 19, 1-(8-((3-Chloro-2-fluoropyridin-4-yl)thio)-[1,2,4]triazolo[4,3-c]pyrimidin-5-yl)-4-methylpiperidin-4-amine] | 555 nM | – | – | – | –
10 | Nc1nc(N2CCC3(CCC[C@H]3N)CC2)n2ccnc2c1-c1cccc(Cl)c1Cl [Example 20, (R)-8-(7-Amino-8-(2,3-dichlorophenyl)imidazo[1,2-c]pyrimidin-5-yl)-8-azaspiro[4.5]decan-1-amine] | 2 nM | 85.9 nM | – | 178 nM | –
11 | Cc1nccc(Sc2c(N)nc(N3CCC4(CC3)CO[C@@H](C)[C@H]4N)n3ccnc23)c1Cl [Example 25, (3S,4S)-8-(7-Amino-8-((3-chloro-2-methylpyridin-4-yl)thio)imidazo[1,2-c]pyrimidin-5-yl)-3-methyl-2-oxa-8-azaspiro[4.5]decan-4-amine] | 5.2 nM | 29.1 nM | – | – | –
12 | C[C@@H]1OCC2(CCN(c3nc(N)c(Sc4ccnc(F)c4Cl)c4nccn34)CC2)[C@@H]1N [Example 26, (3S,4S)-8-(7-Amino-8-((3-chloro-2-fluoropyridin-4-yl)thio)imidazo[1,2-c]pyrimidin-5-yl)-3-methyl-2-oxa-8-azaspiro[4.5]decan-4-amine] | 2.7 nM | 11.6 nM | – | 62 nM | –
13 | Nc1nccc(Sc2c(N)nc(N3CCC4(CC3)Cc3ccccc3[C@H]4N)n3ccnc23)c1Cl [Example 29, (S)-1′-(7-Amino-8-((2-amino-3-chloropyridin-4-yl)thio)imidazo[1,2-c]pyrimidin-5-yl)-1,3-dihydrospiro[indene-2,4′-piperidin]-1-amine] | 1.3 nM | – | – | 14 nM | –
14 | COc1nccc(Sc2cnc(N3CCC4(CC3)Cc3ncccc3[C@H]4N)n3ccnc23)c1Cl [Example 35, (S)-1′-(8-((3-Chloro-2-methoxypyridin-4-yl)thio)imidazo[1,2-c]pyrimidin-5-yl)-5,7-dihydrospiro[cyclopenta[b]pyridine-6,4′-piperidin]-5-amine] | 1.5 nM | – | – | – | –
15 | CNc1ncccc1Sc1cnc(N2CCC3(CC2)Cc2ncccc2[C@H]3N)n2ccnc12 [Example 38, (S)-1′-(8-((2-(Methylamino)pyridin-3-yl)thio)imidazo[1,2-c]pyrimidin-5-yl)-5,7-dihydrospiro[cyclopenta[b]pyridine-6,4′-piperidin]-5-amine] | 10.9 nM | – | – | – | –

Second part, led by results:

Row | IC50 [1] | IC50 (p-ERK in KYSE-520 cells; Homo sapiens, KYSE-520, 2 h) | IC50 (p-ERK in KYSE-520 cells; 2 hours) | SMILES | IC50 (KYSE-520 cells; Homo sapiens) | IC50 (KYSE-520 cells)
16 | 42.2 nM | – | – | Cc1nc(N2CCC3(CCC[C@H]3N)CC2)n2ccnc2c1-c1ccc(OC(F)F)cc1Cl [Example 7, (R)-8-(8-(2-Chloro-4-(difluoromethoxy)phenyl)-7-methylimidazo[1,2-c]pyrimidin-5-yl)-8-azaspiro[4.5]decan-1-amine] | – | –
17 | – | 59.2 nM | – | Cc1nc(N2CCC3(CC2)CO[C@@H](C)[C@H]3N)n2ccnc2c1-c1cccc(Cl)c1Br [Example 12, (3S,4S)-8-(8-(2-Bromo-3-chlorophenyl)-7-methylimidazo[1,2-c]pyrimidin-5-yl)-3-methyl-2-oxa-8-azaspiro[4.5]decan-4-amine] | 346 nM | –
18 | 818 nM | – | – | C[C@@H]1OCC2(CCN(c3nc(C(F)(F)F)c(Sc4cccnc4C(F)(F)F)c4nccn34)CC2)[C@@H]1N [Example 13, (3S,4S)-3-Methyl-8-(7-(trifluoromethyl)-8-((2-(trifluoromethyl)pyridin-3-yl)thio)imidazo[1,2-c]pyrimidin-5-yl)-2-oxa-8-azaspiro[4.5]decan-4-amine] | – | –
19 | 5.6 nM | 197 nM | – | N[C@@H]1CCCC12CCN(c1ncc(Sc3ccnc(F)c3Cl)c3nccn13)CC2 [Example 15, (R)-8-(8-((3-Chloro-2-fluoropyridin-4-yl)thio)imidazo[1,2-c]pyrimidin-5-yl)-8-azaspiro[4.5]decan-1-amine] | 312 nM | –
20 | 8.6 nM | – | – | C[C@@H]1OCC2(CCN(c3ncc(Sc4ccncc4C(F)(F)F)c4nccn34)CC2)[C@@H]1N [Example 18, (3S,4S)-3-Methyl-8-(8-((3-(trifluoromethyl)pyridin-4-yl)thio)imidazo[1,2-c]pyrimidin-5-yl)-2-oxa-8-azaspiro[4.5]decan-4-amine] | – | –
21 | 3.8 nM | 26.6 nM | – | C[C@@H]1OCC2(CCN(c3nc(N)c(-c4cccc(Cl)c4Cl)c4nccn34)CC2)[C@@H]1N [Example 21, (3S,4S)-8-(7-Amino-8-(2,3-dichlorophenyl)imidazo[1,2-c]pyrimidin-5-yl)-3-methyl-2-oxa-8-azaspiro[4.5]decan-4-amine] | 111 nM | –
22 | 2.1 nM | 24.5 nM | – | Nc1nc(N2CCC3(CCC[C@H]3N)CC2)n2ccnc2c1Sc1ccnc(F)c1Cl [Example 22, (R)-8-(7-Amino-8-((3-chloro-2-fluoropyridin-4-yl)thio)imidazo[1,2-c]pyrimidin-5-yl)-8-azaspiro[4.5]decan-1-amine] | 102 nM | –
23 | 2.3 nM | 23.2 nM | – | Nc1nc(N2CCC3(CCC[C@H]3N)CC2)n2ccnc2c1Sc1cccnc1C(F)(F)F [Example 23, (R)-8-(7-Amino-8-((2-(trifluoromethyl)pyridin-3-yl)thio)imidazo[1,2-c]pyrimidin-5-yl)-8-azaspiro[4.5]decan-1-amine] | 51.6 nM | –
24 | 1.2 nM | – | – | Cc1nc(N2CCC3(CC2)Cc2ncccc2[C@H]3N)n2ccnc2c1-c1cccc(Cl)c1Cl [Example 33, (S)-1′-(8-(2,3-Dichlorophenyl)-7-methylimidazo[1,2-c]pyrimidin-5-yl)-5,7-dihydrospiro[cyclopenta[b]pyridine-6,4′-piperidin]-5-amine] | – | –
25 | – | – | 34.6 nM | Cc1nc(N2CCC3(CC2)CO[C@@H](C)[C@H]3N)c(CO)nc1-c1cccc(Cl)c1Cl [RMC4550, reference compound] | – | 201 nM
